Values quoted from earlier work in publication PMC8513935.

Assays:
[1] = log P octanol/water from commercial databases, averaged (the ESI); settings: Octanol (wet), 25 C
[2] = experimental, compiled by the authors from the literature (the ESI cites the sources)
[3] = derived by the authors as gas->solvent minus gas->water (a hypothetical dry solvent; the ESI), not a two-phase measurement

In the case of `C/C=C\C`, the log K of transfer, water to solvent [1] is given as 2.33 log10 K, the log K of transfer, gas to solvent ([2]; Hexadecane, 25 C) is given as 1.74 log10 K and the log K of transfer, gas to solvent ([2]; Water, 25 C) is given as -0.99 log10 K. The log K of transfer, water to solvent ([3]; Hexadecane, 25 C) was 2.73 log10 K.
For `C/C=C/C`, the log K of transfer, water to solvent [1] is given as 2.31 log10 K, the log K of transfer, gas to solvent ([2]; Hexadecane, 25 C) is given as 1.66 log10 K and the log K of transfer, gas to solvent ([2]; Propanone, 25 C) is given as 1.81 log10 K. The log K of transfer, gas to solvent ([2]; Water, 25 C) was -0.98 log10 K, the log K of transfer, water to solvent ([3]; Acetone, 25 C) was 2.79 log10 K and the log K of transfer, water to solvent ([3]; Hexadecane, 25 C) was 2.64 log10 K.
In the case of `Cc1cc(C)c(C)cc1C`, the log K of transfer, water to solvent [1] is listed as 4.1 log10 K, the log K of transfer, gas to solvent ([2]; 2-Methylpropan-1-ol, 25 C) is listed as 4.77 log10 K and the log K of transfer, gas to solvent ([2]; 2-Methylpropan-2-ol, 25 C) is listed as 4.85 log10 K. For the same compound, the log K of transfer, gas to solvent ([2]; 3-Methylbutan-1-ol, 25 C) was 4.86 log10 K, the log K of transfer, gas to solvent ([2]; Butan-1-ol, 25 C) was 4.92 log10 K and the log K of transfer, gas to solvent ([2]; Butan-2-ol, 25 C) was 4.85 log10 K. The log K of transfer, gas to solvent ([2]; Decan-1-ol, 25 C) was 5.01 log10 K, the log K of transfer, gas to solvent ([2]; Di-n-butyl ether, 25 C) was 5.27 log10 K and the log K of transfer, gas to solvent ([2]; Diethyl Ether, 25 C) was 5.38 log10 K. For the same compound, the log K of transfer, gas to solvent ([2]; Ethanol, 25 C) was 4.72 log10 K, the log K of transfer, gas to solvent ([2]; Heptan-1-ol, 25 C) was 4.97 log10 K and the log K of transfer, gas to solvent ([2]; Hexadecane, 25 C) was 5.03 log10 K. The log K of transfer, gas to solvent ([2]; Hexan-1-ol, 25 C) was 4.95 log10 K, the log K of transfer, gas to solvent ([2]; Hexane, 25 C) was 5.31 log10 K and the log K of transfer, gas to solvent ([2]; Methanol, 25 C) was 4.52 log10 K. For the same compound, the log K of transfer, gas to solvent ([2]; Pentan-1-ol, 25 C) was 4.92 log10 K, the log K of transfer, gas to solvent ([2]; Propan-1-ol, 25 C) was 4.79 log10 K and the log K of transfer, gas to solvent ([2]; Propan-2-ol, 25 C) was 4.75 log10 K. For the same compound, the log K of transfer, gas to solvent ([2]; Water, 25 C) was 0.53 log10 K, the log K of transfer, water to solvent ([3]; 2-Methylpropan-1-ol, 25 C) was 4.24 log10 K and the log K of transfer, water to solvent ([3]; 2-Methylpropan-2-ol, 25 C) was 4.32 log10 K. The log K of transfer, water to solvent ([3]; 3-Methylbutan-1-ol, 25 C) was 4.33 log10 K, the log K of transfer, water to solvent ([3]; Butan-1-ol, 25 C) was 4.39 log10 K and the log K of transfer, water to solvent ([3]; Butan-2-ol, 25 C) was 4.32 log10 K. The log K of transfer, water to solvent ([3]; Decan-1-ol, 25 C) was 4.48 log10 K, the log K of transfer, water to solvent ([3]; Di-n-butyl ether, 25 C) was 4.74 log10 K and the log K of transfer, water to solvent ([3]; Diethyl Ether, 25 C) was 4.85 log10 K. The log K of transfer, water to solvent ([3]; Ethanol, 25 C) was 4.19 log10 K, the log K of transfer, water to solvent ([3]; Heptan-1-ol, 25 C) was 4.44 log10 K and the log K of transfer, water to solvent ([3]; Hexadecane, 25 C) was 4.5 log10 K. The log K of transfer, water to solvent ([3]; Hexan-1-ol, 25 C) was 4.42 log10 K, the log K of transfer, water to solvent ([3]; Hexane, 25 C) was 4.78 log10 K and the log K of transfer, water to solvent ([3]; Methanol, 25 C) was 3.99 log10 K. For the same compound, the log K of transfer, water to solvent ([3]; Pentan-1-ol, 25 C) was 4.39 log10 K, the log K of transfer, water to solvent ([3]; Propan-1-ol, 25 C) was 4.26 log10 K and the log K of transfer, water to solvent ([3]; Propan-2-ol, 25 C) was 4.22 log10 K.
In the case of `C1CCCC1`, the log K of transfer, water to solvent [1] is listed as 3 log10 K, the log K of transfer, gas to solvent ([2]; Ethanol, 25 C) is listed as 2.04 log10 K and the log K of transfer, gas to solvent ([2]; Heptan-1-ol, 25 C) is listed as 2.27 log10 K. The log K of transfer, gas to solvent ([2]; Hexadecane, 25 C) was 2.48 log10 K, the log K of transfer, gas to solvent ([2]; Hexane, 25 C) was 2.71 log10 K and the log K of transfer, gas to solvent ([2]; Methanol, 25 C) was 1.92 log10 K. The log K of transfer, gas to solvent ([2]; Propan-1-ol, 25 C) was 2.12 log10 K, the log K of transfer, gas to solvent ([2]; Propan-2-ol, 25 C) was 2.12 log10 K and the log K of transfer, gas to solvent ([2]; Water, 25 C) was -0.88 log10 K. The log K of transfer, water to solvent ([3]; Ethanol, 25 C) was 2.92 log10 K, the log K of transfer, water to solvent ([3]; Heptan-1-ol, 25 C) was 3.15 log10 K and the log K of transfer, water to solvent ([3]; Hexadecane, 25 C) was 3.36 log10 K. For the same compound, the log K of transfer, water to solvent ([3]; Hexane, 25 C) was 3.59 log10 K, the log K of transfer, water to solvent ([3]; Methanol, 25 C) was 2.8 log10 K and the log K of transfer, water to solvent ([3]; Propan-1-ol, 25 C) was 3 log10 K. The log K of transfer, water to solvent ([3]; Propan-2-ol, 25 C) was 3 log10 K.
For `CCC(C)=O`, the log K of transfer, water to solvent [1] is listed as 0.29 log10 K, the log K of transfer, gas to solvent ([2]; 1,2-Dichloroethane, 25 C) is listed as 3.64 log10 K and the log K of transfer, gas to solvent ([2]; 2-Methylpropan-1-ol, 25 C) is listed as 2.99 log10 K. For the same compound, the log K of transfer, gas to solvent ([2]; 2-Methylpropan-2-ol, 25 C) was 3.11 log10 K, the log K of transfer, gas to solvent ([2]; 3-Methylbutan-1-ol, 25 C) was 3.01 log10 K and the log K of transfer, gas to solvent ([2]; Acetonitrile, 25 C) was 3.48 log10 K. For the same compound, the log K of transfer, gas to solvent ([2]; Benzene, 25 C) was 3.27 log10 K, the log K of transfer, gas to solvent ([2]; Butan-1-ol, 25 C) was 3.02 log10 K and the log K of transfer, gas to solvent ([2]; Butan-2-ol, 25 C) was 3.05 log10 K. For the same compound, the log K of transfer, gas to solvent ([2]; Butanone, 25 C) was 3.36 log10 K, the log K of transfer, gas to solvent ([2]; Butyronitrile, 25 C) was 3.38 log10 K and the log K of transfer, gas to solvent ([2]; CCl4, 25 C) was 2.99 log10 K. The log K of transfer, gas to solvent ([2]; Chlorobenzene, 25 C) was 3.29 log10 K, the log K of transfer, gas to solvent ([2]; Chloroform, 25 C) was 3.87 log10 K and the log K of transfer, gas to solvent ([2]; Cyclohexane, 25 C) was 2.47 log10 K. The log K of transfer, gas to solvent ([2]; Cyclohexanone, 25 C) was 3.29 log10 K, the log K of transfer, gas to solvent ([2]; Di-n-butyl ether, 25 C) was 2.73 log10 K and the log K of transfer, gas to solvent ([2]; Dichloromethane, 25 C) was 3.86 log10 K. For the same compound, the log K of transfer, gas to solvent ([2]; Diethyl Ether, 25 C) was 3.03 log10 K, the log K of transfer, gas to solvent ([2]; Ethanol, 25 C) was 3.16 log10 K and the log K of transfer, gas to solvent ([2]; Hexadecane, 25 C) was 2.29 log10 K. The log K of transfer, gas to solvent ([2]; Hexan-1-ol, 25 C) was 2.84 log10 K, the log K of transfer, gas to solvent ([2]; Hexane, 25 C) was 2.49 log10 K and the log K of transfer, gas to solvent ([2]; Methanol, 25 C) was 3.34 log10 K. For the same compound, the log K of transfer, gas to solvent ([2]; Octan-1-ol, 25 C) was 2.77 log10 K, the log K of transfer, gas to solvent ([2]; Pentan-1-ol, 25 C) was 2.85 log10 K and the log K of transfer, gas to solvent ([2]; Perfluoroalkane, 25 C) was 1.76 log10 K. The log K of transfer, gas to solvent ([2]; Propan-1-ol, 25 C) was 3.07 log10 K, the log K of transfer, gas to solvent ([2]; Propan-2-ol, 25 C) was 2.99 log10 K and the log K of transfer, gas to solvent ([2]; Propanone, 25 C) was 3.42 log10 K. For the same compound, the log K of transfer, gas to solvent ([2]; Tetrahydrofuran, 25 C) was 3.33 log10 K, the log K of transfer, gas to solvent ([2]; Toluene, 25 C) was 3.13 log10 K and the log K of transfer, gas to solvent ([2]; Water, 25 C) was 2.72 log10 K. The log K of transfer, water to solvent ([3]; 1,2-Dichloroethane, 25 C) was 0.92 log10 K, the log K of transfer, water to solvent ([3]; 2-Methylpropan-1-ol, 25 C) was 0.27 log10 K and the log K of transfer, water to solvent ([3]; 2-Methylpropan-2-ol, 25 C) was 0.39 log10 K. The log K of transfer, water to solvent ([3]; 3-Methylbutan-1-ol, 25 C) was 0.29 log10 K, the log K of transfer, water to solvent ([3]; Acetone, 25 C) was 0.7 log10 K and the log K of transfer, water to solvent ([3]; Acetonitrile, 25 C) was 0.76 log10 K. For the same compound, the log K of transfer, water to solvent ([3]; Benzene, 25 C) was 0.55 log10 K, the log K of transfer, water to solvent ([3]; Butan-1-ol, 25 C) was 0.3 log10 K and the log K of transfer, water to solvent ([3]; Butan-2-ol, 25 C) was 0.33 log10 K. The log K of transfer, water to solvent ([3]; Butanone, 25 C) was 0.64 log10 K, the log K of transfer, water to solvent ([3]; Butyronitrile, 25 C) was 0.66 log10 K and the log K of transfer, water to solvent ([3]; CCl4, 25 C) was 0.27 log10 K. For the same compound, the log K of transfer, water to solvent ([3]; Chlorobenzene, 25 C) was 0.57 log10 K, the log K of transfer, water to solvent ([3]; Chloroform, 25 C) was 1.15 log10 K and the log K of transfer, water to solvent ([3]; Cyclohexane, 25 C) was -0.246 log10 K. The log K of transfer, water to solvent ([3]; Cyclohexanone, 25 C) was 0.574 log10 K, the log K of transfer, water to solvent ([3]; Di-n-butyl ether, 25 C) was 0.00999 log10 K and the log K of transfer, water to solvent ([3]; Dichloromethane, 25 C) was 1.14 log10 K. For the same compound, the log K of transfer, water to solvent ([3]; Diethyl Ether, 25 C) was 0.31 log10 K, the log K of transfer, water to solvent ([3]; Ethanol, 25 C) was 0.44 log10 K and the log K of transfer, water to solvent ([3]; Hexadecane, 25 C) was -0.433 log10 K. The log K of transfer, water to solvent ([3]; Hexan-1-ol, 25 C) was 0.122 log10 K, the log K of transfer, water to solvent ([3]; Hexane, 25 C) was -0.23 log10 K and the log K of transfer, water to solvent ([3]; Methanol, 25 C) was 0.62 log10 K. The log K of transfer, water to solvent ([3]; Octan-1-ol(dry), 25 C) was 0.05 log10 K, the log K of transfer, water to solvent ([3]; Pentan-1-ol, 25 C) was 0.13 log10 K and the log K of transfer, water to solvent ([3]; Perfluoroalkane, 25 C) was -0.957 log10 K. The log K of transfer, water to solvent ([3]; Propan-1-ol, 25 C) was 0.35 log10 K, the log K of transfer, water to solvent ([3]; Propan-2-ol, 25 C) was 0.27 log10 K and the log K of transfer, water to solvent ([3]; Tetrahydrofuran, 25 C) was 0.61 log10 K. The log K of transfer, water to solvent ([3]; Toluene, 25 C) was 0.41 log10 K.
